Earlier results, collected in US20240108579A1, “UTIDELONE LIPOSOME COMPOSITION, AND PREPARATION METHOD THEREFOR AND USE THEREOF” (Chengdu Biostar Pharmaceuticals, LTD., priority 2021, published 2024).
Read-outs that look alike come from different tables or passages of the source.

SMILES: CC1=CCC(C(C)=Cc2csc(C)n2)OC(=O)CC(O)C(C)(C)C(=O)C(C)C(O)C(C)CCC1 (stereo not drawn) [Utidelone, 4,8-dihydroxy-5,5,7,9,13-pentamethyl-16-[1-methyl-2-(2-methyl-thiazole-4-yl)-vinyl]-hexadecoxetane-13-en-2,6-one lactone]
- solubility (in words) (ethanol, methanol, ethyl acetate, and chloroform): easily soluble
- saturated solubility in water (water): less than 1 μg/ml
- solubility (in words) (water): insoluble
